In US8568997B2, “Detection system and uses therefor” (Dimerix Bioscience Pty Ltd., priority 2006, dated 2013):
Ends that are not written are not given here.

How the values were obtained:
[1] = test system: TRHR with OxR2 (thyrotropin releasing hormone receptor/orexin receptor hetero-dimer/-oligomer); assay: eBRET/BRET between TRHR/Rluc (or Rluc8) and labelled beta-arrestin with OxR2 co-expressed as IG3; format: cell-based
Description: (§1) eBRET measurements at 37 C were carried out on HEK293 cells transiently co-expressing TRHR/Rluc and barr2/Venus with either pcDNA3, orexin receptor 2 (OxR2), CXC chemokine receptor 2 (CXCR2), hemagglutin epitope-tagged melanocortin receptor 3 or 4 (HA-MC3R or HA-MC4R), or dopamine D2 receptor long form (D2LR) or short form (D2SR) following the treatment of each with their respective ligands.
(§2) Phosphate-buffered saline (PBS) was used as a vehicle control.
(§3) Where antagonist was not preincubated, cells were treated with PBS instead for the same amount of time.
as §2
Sigmoidal dose response curves were plotted using Prism (GraphPad), either assuming a Hill slope of 1 or allowing for variable slope.
Phosphate-buffered saline (PBS) was added to the first two rows and the last two rows of the 96-well plate (48 wells in total) as a vehicle control. […] Data presented as fluorescence/luminescence.
(§4) Cells were seeded in 6-well plates at a density of approximately 630,000 cells/well (HEK293FT) or approximately 150,000 cells/well (COS-7) and maintained at 37° C., 5% CO2 in Complete Media (DMEM containing 0.3 mg/ml glutamine, 100 IU/ml penicillin and 100 μg/ml streptomycin (Gibco)) supplemented with 10% fetal calf serum (FCS; Gibco). Transient transfections were carried out 24 h after seeding using GeneJuice (Novagen) or Metafectene (Biontex) according to manufacturer instructions. 24 h post-transfection, cells were washed with PBS, detached using 0.05% trypsin/0.53 mM EDTA, resuspended in HEPES-buffered phenol red free Complete Media containing 5% FCS and added to a poly-L-lysine-coated white microplate (Nunc). 48 h post-transfection, eBRET assays were carried out following pre-incubation of cells with EnduRen™ (Promega) at a final concentration of 30-40 μM, at 37° C., 5% CO2 for 2 h. For original BRET studies, the HEPES-buffered phenol red free Complete Media was replaced with PBS and coelenterazine h (Molecular Probes) added to a final concentration of 5 μM immediately prior to commencing the assay. […] Filtered light emissions were sequentially measured for 3-5 s in each of the ‘donor wavelength window’ (400-475 nm) and ‘acceptor wavelength window’ (>500 nm for EGFP or 520-540 nm for EYFP, Topaz (TYFP) or Venus). The BRET signal observed between interacting proteins is normalized by subtracting the background BRET ratio. […] In the following examples, the first calculation will be used, unless the signal is described as the ligand-induced BRET ratio'.
In this case, data are shown as ‘fluorescence/luminescence’ being the ratio of light emission through the ‘acceptor wavelength window’ over the 400-475 nm emission for a particular cell sample. Unless otherwise stated, BRET signals were measured in 96-well microplates.

TRHR with OxR1 = assay: eBRET between TRHR/Rluc and barr2/Venus with OxR1 as IG3; format: cell-based
Description: as §3, §4
Cells not pretreated with antagonist were pretreated with PBS instead for the same amount of time.

[2] = cited from earlier work
CCR5 with CCR2 = target: T1, CCR5 with CCR2 (Homo sapiens, UniProt P41597+P51681); assay: eBRET between CCR5(5)TYFP and barr2/Rluc with CCR2 as IG3; format: cell-based; settings: CCR5(5)TYFP + barr2/Rluc + CCR2
T1 construct: expressed in transfected cells; host or cells: HEK293
Description: (§5) Ligand treatments were either monocyte chemoattractant protein 1 (MCP1; CCR2 selective ligand), macrophage inflammatory protein 1b (MIP1b; CCR5 selective ligand), or both MCP1 and MIP1b combined. Phosphate-buffered saline (PBS) was used as a vehicle control.
BRET measurements at 37 C were carried out on HEK293 cells transiently co-expressing CCR5(5)TYFP (contains a 5 amino acid linker between CCR5 and TYFP), barr2/Rluc and CCR2 treated with increasing doses of monocyte chemoattractant protein 1 (MCP1; CCR2 selective ligand). A sigmoidal dose response curve was plotted using Prism (GraphPad) allowing for variable slope.
Cells were seeded in 6-well plates at a density of approximately 630,000 cells/well (HEK293FT) or approximately 150,000 cells/well (COS-7) and maintained at 37° C., 5% CO2 in Complete Media (DMEM containing 0.3 mg/ml glutamine, 100 IU/ml penicillin and 100 μg/ml streptomycin (Gibco)) supplemented with 10% fetal calf serum (FCS; Gibco). […] BRET measurements were taken at 37° C. using the Victor Light plate reader with Wallac 1420 software (Perkin-Elmer). Filtered light emissions were sequentially measured for 3-5 s in each of the ‘donor wavelength window’ (400-475 nm) and ‘acceptor wavelength window’ (>500 nm for EGFP or 520-540 nm for EYFP, Topaz (TYFP) or Venus). […]

[3] = target: T2, CC chemokine receptor 5 (CCR5) (Homo sapiens, UniProt P51681); assay: eBRET between CCR5(5)TYFP and barr2/Rluc without IG3 (pcDNA3); format: cell-based; settings: CCR5(5)TYFP + barr2/Rluc + pcDNA3
T2 construct: expressed in transfected cells; host or cells: HEK293
Description: as §5
(§6) Cells were seeded in 6-well plates at a density of approximately 630,000 cells/well (HEK293FT) or approximately 150,000 cells/well (COS-7) and maintained at 37° C., 5% CO2 in Complete Media (DMEM containing 0.3 mg/ml glutamine, 100 IU/ml penicillin and 100 μg/ml streptomycin (Gibco)) supplemented with 10% fetal calf serum (FCS; Gibco). Transient transfections were carried out 24 h after seeding using GeneJuice (Novagen) or Metafectene (Biontex) according to manufacturer instructions. 24 h post-transfection, cells were washed with PBS, detached using 0.05% trypsin/0.53 mM EDTA, resuspended in HEPES-buffered phenol red free Complete Media containing 5% FCS and added to a poly-L-lysine-coated white microplate (Nunc). 48 h post-transfection, eBRET assays were carried out following pre-incubation of cells with EnduRen™ (Promega) at a final concentration of 30-40 μM, at 37° C., 5% CO2 for 2 h. For original BRET studies, the HEPES-buffered phenol red free Complete Media was replaced with PBS and coelenterazine h (Molecular Probes) added to a final concentration of 5 μM immediately prior to commencing the assay. BRET measurements were taken at 37° C. using the Victor Light plate reader with Wallac 1420 software (Perkin-Elmer). Filtered light emissions were sequentially measured for 3-5 s in each of the ‘donor wavelength window’ (400-475 nm) and ‘acceptor wavelength window’ (>500 nm for EGFP or 520-540 nm for EYFP, Topaz (TYFP) or Venus). The BRET signal observed between interacting proteins is normalized by subtracting the background BRET ratio. […]

[4] = test system: thyrotropin releasing hormone receptor (TRHR); assay: eBRET/BRET beta-arrestin recruitment to TRHR/Rluc without IG3 (pcDNA3) in HEK293 cells; format: cell-based
Description: as §1
Ligand treatments were either OxA or TRH only or both OxA and TRH combined. Phosphate-buffered saline (PBS) was used as a vehicle control.
Ligand treatments were either OxA or TRH only. Phosphate-buffered saline (PBS) was used as a vehicle control.
BRET measurements at 37 C were carried out on HEK293 cells transiently co-expressing TRHR/Rluc, barr2/Venus and pcDNA3 with increasing doses of TRH. Sigmoidal dose response curves were plotted using Prism (Graph Pad), either assuming a Hill slope of 1 or allowing for variable slope. The EC50 and Hill slope values for the variable slope curve are included in a table in the graph.
TRHR is IG1, Rluc is RC1, barr1 is IG2, EGFP is RC2 and OxR2 is IG3. The same amount of EGFP/barr1 (IG2-RC2) is transfected for each experiment.
Cells were seeded in 6-well plates at a density of approximately 630,000 cells/well (HEK293FT) or approximately 150,000 cells/well (COS-7) and maintained at 37° C., 5% CO2 in Complete Media (DMEM containing 0.3 mg/ml glutamine, 100 IU/ml penicillin and 100 μg/ml streptomycin (Gibco)) supplemented with 10% fetal calf serum (FCS; Gibco). Transient transfections were carried out 24 h after seeding using GeneJuice (Novagen) or Metafectene (Biontex) according to manufacturer instructions. 24 h post-transfection, cells were washed with PBS, detached using 0.05% trypsin/0.53 mM EDTA, resuspended in HEPES-buffered phenol red free Complete Media containing 5% FCS and added to a poly-L-lysine-coated white microplate (Nunc). 48 h post-transfection, eBRET assays were carried out following pre-incubation of cells with EnduRen™ (Promega) at a final concentration of 30-40 μM, at 37° C., 5% CO2 for 2 h. For original BRET studies, the HEPES-buffered phenol red free Complete Media was replaced with PBS and coelenterazine h (Molecular Probes) added to a final concentration of 5 μM immediately prior to commencing the assay. BRET measurements were taken at 37° C. using the Victor Light plate reader with Wallac 1420 software (Perkin-Elmer). Filtered light emissions were sequentially measured for 3-5 s in each of the ‘donor wavelength window’ (400-475 nm) and ‘acceptor wavelength window’ (>500 nm for EGFP or 520-540 nm for EYFP, Topaz (TYFP) or Venus). The BRET signal observed between interacting proteins is normalized by subtracting the background BRET ratio. This can be done in one of two ways (see Pfleger et al. (2006) Cell Signal 18, 1664-1670; Pfleger et al. (2006) Nat Protoc 1, 336-344): 1) the ratio of light emission through the ‘acceptor wavelength window’ over the 400-475 nm emission for a cell sample containing only the donor construct is subtracted from the same ratio for a sample containing the interacting acceptor and donor fusion proteins; 2) the ratio of light emission through the ‘acceptor wavelength window’ over the 400-475 nm emission for a cell sample treated with vehicle is subtracted from the same ratio for a second aliquot of the same cell sample treated with ligand. In the following examples, the first calculation will be used, unless the signal is described as the ligand-induced BRET ratio'.

[5] = test system: TRHR335 (truncated TRHR) with OxR2; assay: eBRET/BRET between TRHR335/Rluc and labelled beta-arrestin with OxR2 as IG3; format: cell-based; settings: TRHR335/Rluc + EGFP/barr1 + OxR2
TRHR335 with TRHR = assay: eBRET between TRHR335/Rluc and EGFP/barr1 with TRHR as IG3; format: cell-based
Description: Ligand treatments were either OxA or TRH only.
as §6, with “For original BRET studies, the HEPES-buffered phenol red free Complete Media was replaced with PBS and coelenterazine h (Molecular Probes) added to a final concentration of 5 μM immediately prior to commencing the assay.” left out, “Venus).” for “Venus). The BRET signal observed between interacting proteins is normalized by subtracting the background BRET ratio.”

[6] = 10^−6M antagonist approx. 40 minutes before 10^−6M OxA
[7] = 10^−6M antagonist approx. 40 minutes before 10^−6M TRH and OxA

T2 sequence (P51681 whole entry, species assumed): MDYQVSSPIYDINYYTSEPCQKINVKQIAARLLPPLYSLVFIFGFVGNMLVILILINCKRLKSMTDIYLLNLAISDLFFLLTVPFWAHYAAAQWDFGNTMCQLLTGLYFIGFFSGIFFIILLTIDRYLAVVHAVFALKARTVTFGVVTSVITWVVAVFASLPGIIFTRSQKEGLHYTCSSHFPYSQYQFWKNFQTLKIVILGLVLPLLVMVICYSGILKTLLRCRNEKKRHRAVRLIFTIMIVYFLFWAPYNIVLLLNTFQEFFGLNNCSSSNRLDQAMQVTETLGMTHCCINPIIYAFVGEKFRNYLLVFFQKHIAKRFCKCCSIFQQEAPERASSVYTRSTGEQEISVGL
T1 sequence (P51681 whole entry, species assumed): as above
T1 sequence (P41597 whole entry, species assumed): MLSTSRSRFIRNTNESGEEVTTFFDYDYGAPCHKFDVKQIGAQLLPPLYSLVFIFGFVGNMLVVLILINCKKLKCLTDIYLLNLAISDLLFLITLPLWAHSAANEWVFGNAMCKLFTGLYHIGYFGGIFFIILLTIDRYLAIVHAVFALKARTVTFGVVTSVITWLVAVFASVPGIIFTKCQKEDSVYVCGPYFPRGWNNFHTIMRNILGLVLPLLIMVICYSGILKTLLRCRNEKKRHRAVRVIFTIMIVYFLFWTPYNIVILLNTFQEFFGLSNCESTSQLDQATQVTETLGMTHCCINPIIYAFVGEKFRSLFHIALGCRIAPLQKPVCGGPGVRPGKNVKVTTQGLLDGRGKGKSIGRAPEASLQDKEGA

## Cc1nc2ccc(NC(=O)Nc3ccnc4cccnc34)cc2o1.Cl [SB-334867-A, 1-(2-methylbenzoxazol-6-yl)-3-[1,5]naphthyridin-4-yl urea hydrochloride]
[1]; [6]
  effect of antagonist pretreatment on OxA-induced eBRET signal: not affected
[1]; [7]
  effect of antagonist pretreatment on TRH + OxA-induced eBRET signal: did not differ
TRHR with OxR1; [6]
  effect of antagonist pretreatment on OxA-induced eBRET signal: reduced
TRHR with OxR1; [7]
  effect of antagonist pretreatment on TRH + OxA-induced eBRET signal: reduced

## CN1C(=O)C[C@@H](C(=O)N[C@@H](Cc2c[nH]cn2)C(=O)N2CCC[C@H]2C(N)=O)NC1=O.O.O.O.O [TA-0910, (−)-N—[(S)-hexahydro-1-methyl-2,6-dioxo-4-pyrimidinylcarbonyl]-L-histidyl-L-prolinamide tetrahydrate]
[2]; dose- and time-dependent manner
  slow wave sleep (SWS) and rapid eye movement (REM) sleep: significantly reduced
[2]; in most of the animals studied
  cataplexy: completely suppressed

## MCP1: Monocyte chemoattractant protein 1 (CCR2 selective ligand)
CCR5 with CCR2
  eBRET signal: able to produce a signal
[3]
  eBRET signal: no eBRET signal
  effect of MCP1 addition on MIP1b-induced eBRET signal: made no difference

## OxA: Orexin A, orexin receptor modulator used as IG3 ligand (QPLPDCCRQKTCSCRLYELLHGAGNHAAGILTL; not fully specified; ends and bridges not checked; UniProt O43612 34-66, looked up)
[1]; Example 3: TRHR/Rluc + barr2/Venus + OxR2, 10^−6M OxA, PBS pretreatment
  eBRET signal: eBRET signal was observed
[1]; HEK293, TRHR/Rluc + barr2/Venus + OxR2, ligand 10^−6M
  time to reach eBRET signal: up to 30 minutes
[1]; HEK293, TRHR/Rluc + barr2/Venus + OxR2, ligand 10^−6M, 37 C
  eBRET signal: 0.07-0.08
[1]; TRHR/Rluc + EGFP/barr1R169E + OxR2 (lower signal than EGFP/barr1)
  time to eBRET signal plateau: ≤ 20 min
[1]; TRHR/Rluc + EGFP/barr1 or EGFP/barr2 + HA-OxR2
  time to eBRET signal plateau: more than 10 minutes
[1]; TRHR/Rluc + EGFP/barr1 or EGFP/barr2 + OxR2
  time to eBRET signal plateau: more than 10 minutes
[1]; TRHR/Rluc + barr2/Venus + OxR2, coelenterazine h and EnduRen, FIG. 12
  dose-response Hill slopes: greater than 1
[4]; TRHR/Rluc + EGFP/barr1, 0 μg OxR2 DNA/well, 10^−6M OxA, 83 mins
  cumulative eBRET signal: no signal was recorded
[4]; TRHR/Rluc + EGFP/barr1 or EGFP/barr2, no OxR2, OxA present with TRH
  effect of OxA on TRH-induced eBRET signal: no difference
[4]; TRHR/Rluc + EGFP/barr (barr1, barr2 or barr1R169E), no OxR2
  eBRET signal: No increase in eBRET signal above baseline
TRHR with OxR1; TRHR/Rluc + barr2/Venus + OxR1, agonist 10^−6M
  eBRET signal: small eBRET signal
[5]
  time to eBRET signal plateau: about 20 minutes
TRHR335 with TRHR
  eBRET signal: no eBRET signal above baseline

B1: MIP1b: Macrophage inflammatory protein 1b (CCR5 selective ligand) (protein, UniProt P13236 24-92, looked up)
C-C motif chemokine 4: APMGSDPPTACCFSYTARKLPRNFVVDYYETSSLCSQPAVVFQTKRSKQVCADPSESWVQEYVYDLELN
CCR5 with CCR2
  eBRET signal: produced a signal
[3]
  eBRET signal: robust signal
